For series [1], the system named is 5-FU-resistant SW480 cells. Kind of series: Spheroid growth of 5-FU-resistant versus parental SW480 cells. The class given is cell-based, human. The conditions noted are these: spheroid culture. On the procedure:
The parental SW480 cells were cultured in RPMI-1640 medium containing 10% FBS, 100 U/mL penicillin, 100 μg/mL streptomycin, and 1 μM 5-FU for two weeks. The 5-FU concentration in the culture medium was then increased to 5 μM and after another two weeks raised further to 10 μM. The resulting 5-FU-resistant SW480 cells were maintained in culture medium with 10 μM 5-FU.
To prepare Matrigel-coated culture plates, 96-well and 24-well plates were placed on ice and coated with 25 μL or 300 μL, respectively, of Matrigel matrix (Corning, LDEV-free) that had been thawed overnight at 4° C. The plates were then placed in a 37° C. incubator for 30 min to allow the Matrigel to solidify. […]
SW480 or HCT116 cells were seeded into regular or Matrigel-coated 96-well plates at a density of 1000 cells/well. […] Each culture was maintained for 7 days, and then cell viabilities were measured using a CellTiter-Glo 3D Cell Viability Assay kit (Promega). […] A 150-μL aliquot from each well was then transferred into a white opaque 96-well assay plate (flat-bottom and non-treated; Corning Costar) and luminescence intensities were measured with a Veritas microplate luminometer (Turner BioSystems).

The test system of series [2] is NIH-3T3 cells. Kind of series: Seahorse oxygen-consumption-rate assay (NIH3T3). The format is cell-based, murine. The following applies: Mus musculus.
Series [3] addresses T1, ALDH1B1 (Homo sapiens, UniProt P30837).
T1 sequence (P30837 18-517): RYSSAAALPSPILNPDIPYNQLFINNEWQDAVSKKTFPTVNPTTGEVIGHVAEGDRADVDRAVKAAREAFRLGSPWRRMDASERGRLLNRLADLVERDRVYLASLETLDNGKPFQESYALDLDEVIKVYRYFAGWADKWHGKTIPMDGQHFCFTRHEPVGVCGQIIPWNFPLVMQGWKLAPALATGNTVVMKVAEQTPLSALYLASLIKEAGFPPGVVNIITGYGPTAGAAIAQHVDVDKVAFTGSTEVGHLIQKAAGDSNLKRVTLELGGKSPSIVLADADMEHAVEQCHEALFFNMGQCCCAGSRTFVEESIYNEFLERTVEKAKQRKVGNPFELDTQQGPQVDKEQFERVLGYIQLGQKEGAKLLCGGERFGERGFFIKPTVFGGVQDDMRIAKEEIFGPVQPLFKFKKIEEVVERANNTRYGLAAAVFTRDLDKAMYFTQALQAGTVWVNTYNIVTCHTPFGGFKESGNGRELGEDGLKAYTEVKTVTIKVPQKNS
Briefly: ALDH1B1 enzyme kinetics assay (NADH fluorescence, acetaldehyde substrate). On the set-up: made in house; host or cells: E. coli BL21 (optionally co-expressed with GroEL/GroES). The class given is biochemical. The conditions noted are these: 1 μg/mL enzyme, 1 mM acetaldehyde, 1 mM NAD+; read-out: ALDH1B1(in vitro) IC50. On the procedure: Cloning, expression, and purification of human recombinant ALDH1A1, ALDH1A3, ALDH2, ALDH3A1, ALDH3A2, ALDH4A1, ALDH5A1 and ALDH7A1 isozymes were conducted as described previously (Chen, C. H. et al. (2015) Proc. Natl. Acad. Sci. U.S.A. 112, 3074-3079). Human ALDH1A2 (Origene, SC109995) and ALDH1B1 (T. Hurley, Indiana University) plasmids were cloned into the pET-15b expression vector (Novagen, 69661-3) containing an N-terminal hexahistidine tag. The mitochondria-targeting sequence of ALDH1B1 was also removed. For protein expression without chaperones, the pET-15b based plasmids were transformed into competent BL21 E. coli cells, which were subsequently grown in 1 L of Luria-Bertani medium containing 100 μg/mL ampicillin at 37° C. Once the OD600 value reached 0.6, the culture was transferred to 16° C. and 0.5 mM isopropyl β-d-1-thiogalactopyranoside was introduced to induce protein expression overnight. The bacteria were then pelleted by centrifugation (3000×g, 4° C. for 30 rain) and harvested. 40 mL BugBuster Master Mix buffer (MilliporeSigrna) containing a protease inhibitor cocktail (cOmplete; Roche) was added, and the cells were lysed by mechanically rolling the suspension at room temperature for 25 min. The lysate was centrifuged (16000×g, 4° C. for 30 min), and the soluble fraction was collected and mixed with 2 mL of Ni-NTA Superflow resin (Qiagen). After the mixture was avowed to rock at 4° C. for 1 h, it was used to create a 10-mL gravity column, which was sequentially treated with 40 mL of wash buffer 1 (20 mM sodium phosphate, 500 mM NaCl, 1 mM DTT, 20 mM imidazole, 5% glycerol, pH 7.4) and 25 mL of wash buffer 2 (20 mM sodium phosphate, 500 mM NaCl, 1 mM DTT, 40 mM imidazole, 5% glycerol, pH 7.4). The hexahistidine-tagged protein was then recovered by treated the column with 5 mL elution buffer (20 mM sodium phosphate, 500 mM NaCl, 1 mM DTT, 400 mM imidazole, 5% glycerol, pH 7.4) and collecting 500-μL fractions. The protein concentration for each fraction was measured (500 μL elution volume was collected as one fraction and was immediately mixed with 500 μL glycerol. The protein concentration for each fraction was measured (600 nm Protein Assay Reagent; Thermo Fisher Scientific), and protein-containing fractions were diluted with an equal volume of glycerol and stored at −80° C. Samples from each step were also collected for SDS-PAGE gel analysis. For ALDH1B1 protein co-expression with chaperones, pET-15b-ALDH1B1 and GroEL/GroES (Addgene, plasmid pBB541) plasmids were co-transformed into competent BL21 E. coli cells, which were subsequently grown in 1 L of Luria-Bertani medium containing 100 μg/mL ampicillin and 50 μg/mL spectinomycin at 37° C. The hexahistidine-tagged ALDH1B1 protein was then expressed and purified as described above.
To evaluate compound activities against ALDH isoforms, reaction mixtures consisting of enzyme assay buffer (100 mM sodium phosphate, 1 mM MgCl2, pH 8.0) and 0.1% DMSO, 1 mM β-mercaptoethanol, 1 mM NAD^+, and the bacterially expressed protein were prepared in white opaque 96-well assay plates (100 μL/well, flat-bottom and non-treated; Corning Costar). 5 μg/mL ALDH enzyme was used for single-dose (1, 10, 50 μM) compound test, and 1 μg/mL ALDH enzyme was used for IC50s determination. Acetaldehyde was then added to each well to achieve an initial substrate concentration of 1 mM, and the resulting enzymatic activity was measured based on NADH fluorescence. The fluorescence signal was read over the course of 10 min on a SpectraMax M2e microplate reader (340-nm excitation and 460-nm emission; Molecular Devices) operated by SoftMax Pro software. Compound activities were normalized to a DMSO control, and dose-response inhibition curves were fitted with four-parameter non-linear regression using Prism software. […]

Series [4] addresses T1, ALDH1B1. Briefly: ALDEFLUOR assay of cellular ALDH1B1 activity in ALDH1B1-transfected ALDH1A3−/− A375 cells. The class given is cell-based. The conditions noted are these: ALDEFLUOR, ALDH1B1-overexpressing ALDH1A3−/− A375 cells; read-out: ALDH1B1(in cellulo) IC50. On the procedure:
ALDH1A3^−/− A375 cells were seeded into a 6-well plate at a density of 5×10^5 cells/well and cultured for 24 h. The cells were then transfected with either pCMV6-entry, pCMV6-GFP (Addgene, plasmid 11153), or pCMV-ALDH1B1. After 24 h, the media was replaced and transfection efficiencies were estimated by the EGFP-positive cells in the pCMV-GFP-transfected well. The cells were cultured for another 24 h and their ALDH activities were quantified using the ALDEFLUOR assay. Briefly, the cells were isolated from the plate with trypsin and resuspended in ALDEFLUOR assay buffer (STEMCELL Technologies) at a concentration of 4×10^5 cells/mL. Each ALDEFLUOR assay used 0.5 mL of this cell suspension, and the cells were treated with individual compounds for 15 min at 37° C. and 5% CO2. The cell suspensions were then treated with 2.5 μL ALDEFLUOR reagent and incubated for an additional 30 min at 37° C. and 5% CO2. The cells were then collected by centrifugation (450×g) for 5 min at room temperature, resuspended in 200 μL assay buffer, and analyzed with an LSR II flow cytometer (BD Biosciences) at the Stanford FACS facility.

A short description of series [5]: HEK-293T cytotoxicity (cell viability) assay. The conditions noted are these: human, HEK-293T cells; adherent HEK-293T, 4-5 days, CellTiter-Glo; read-out: HEK293T GI50. The format is cell-based. The method, then: HEK-293T cells were seeded into a 96-well plate at a density of 5×10^3 cells/well and treated with varying concentrations of selected compounds or an equivalent amount of DMSO vehicle. The cells were cultured for 4-5 days without a media change, and after the DMSO-treated cells approached 100% confluence, the cell viabilities were measured using a CellTiter-Glo 3D Cell Viability Assay kit (Promega) and a Veritas microplate luminometer (Turner BioSystems) as described above.
Background: Cellular ATP, detected with luciferase, serves as a proxy for viable cell number.

The structures appear in SMILES notation.

Take `O=c1[nH]cc(F)c(=O)[nH]1` [Compound 5-FU, 5-fluorouracil]: the “loss of sensitivity of 5-FU-resistant SW480 line versus parental line” value in series [1] stood at 50 fold.

As for `CCOc1ccc(N2C=C(c3ccc(-c4ccccc4)cc3)N3CCCCN=C32)cc1` [Guanidine 73], the IC50 (commonly the concentration at which inhibition is half-maximal) in series [2] came to 2.4 µM; in series [3], 1.9 µM; in series [4], 6.7 µM.

As to `COc1ccccc1N1C=C(c2ccc(-c3ccccc3)cc2)N2CCCCN=C21` [HPI-269], the figures for the IC50 in series [2], in series [3] and in series [4] were 0.58 µM, 0.081 µM and 0.11 µM, respectively. Moreover, the GI50 (as a rule, the concentration giving 50% growth inhibition) in series [5] stood at 3.4 µM.

These data come from patent publication US12570661B2, “Isoform-specific aldehyde dehydrogenase inhibitors” (The Board of Trustees of the Leland Stanford Junior …, priority 2020, dated 2026).
